Results as given in patent US4731381A, “Method of treating a person for sickle cell anemia” (Merck & Co., Inc., priority 1986, dated 1988).
Where a name gives a salt, the structure may show the parent alone.

Legend:
[1] = target: sickle hemoglobin (HbS) (Homo sapiens, UniProt P68871+P69905, E7V); test: solubility assay (Csat assay) of sickle hemoglobin; format: biochemical; details: for activation at 3000 µM: 3 mM; for activation at 3000 µM / activation at 5000 µM / activation at 7000 µM / activation at 9000 µM: read-out: % increase in Solubility of HbS; for activation at 7000 µM: 7 mM; for activation at 9000 µM: 9 mM
From the text: One major assay for evaluating antisickling agents involves measuring their effect on increasing the concentration at which sickle hemoglobin forms a gel. This is called the solubility or Csat assay.
The solubility assay (Csat assay) measures the ability of a compound to increase solubility of sickle hemoglobin (HbS). […] The higher the ratio, the higher the activity of the compound.
In order to confirm the effectiveness of these compounds in reducing the effect of sickle cell anemia, tests were performed. The materials were tested according to the assay (Csat) developed by Hofrichter et al. (J. Hofrichter, P. D. Ross and W. A. Eaton, Proc. Natl. Acad. Sci., U.S.A. 73, 30-35, 1976). This assay involves deoxygenation of concentrated sickle hemoglobin with dithionite in the presence of different concentrations of the drugs being tested. Samples are then sealed in quartz epr tubes under anaerobic conditions and spun at about 150,000 g for about 21/2 hours at about 35° C. in an ultracentrifuge. This procedure pellets the polymerized HbS (sickle hemoglobin) to the bottom of the tubes and the supernatant (soluble HbS) is measured in the laboratory as the cyanmethemoglobulin derivative. […] Activity is reported as a ratio of the HbS solubility with the particular drug to HbS solubility with no drug, i.e. control. The higher the ratio the greater degree of activity of the drug. The numbers in parenthesis are the percent increase in solubility of HbS; again, the higher the number, the greater the activity. The results of representative compounds from the Examples are shown in Table I as typical of the compounds of the invention.

[2] = tested on: HbS; test: chromatographic separation, covalent binding between HbS and the agent
[3] = tested on: erythrocyte membranes; test: tests of transport across erythrocyte membranes; format: in vitro ADME

| SMILES | activation at 3000 µM [1] [%] | activation at 5000 µM ([1]; 5 mM) [%] | activation at 7000 µM [1] [%] | activation at 9000 µM [1] [%] | solubility ratio (Csat assay) compared with other antisickling agents, in words ([1]; 5 mM, sodium salt) | covalent binding between HbS and the therapeutic agent, in words [2] | ability to cross the red blood cell membrane, in words [3] |
| --- | --- | --- | --- | --- | --- | --- | --- |
| C=C(CC)C(=O)c1ccc(OCCC(=O)O)c(Cl)c1Cl [Example 1, 3-[2,3-dichloro-4-(2-methylenebutyryl)phenoxy]propionic acid] | 26 | 33 | 43 | 69 | – | – | – |
| C=C(CC)C(=O)c1ccc(OCCCC(=O)O)c(Cl)c1Cl [Example 2, 4-[2,3-dichloro-4-(2-methylenebutyryl)phenoxy]butyric acid] | 22 | 27 | 37 | 46 | – | – | – |
| C=C(CCC)C(=O)c1ccc(OCCCC(=O)O)c(Cl)c1Cl [Example 3, 4-[2,3-dichloro-4-(2-methylenevaleryl)phenoxy]butyric acid] | 18 | 37 | 46 | 51 | – | – | – |
| C=C(CC)C(=O)c1ccc(OCCCCC(=O)O)c(Cl)c1Cl [Example 4, 5-[2,3-dichloro-4-(2-methylenebutyryl)phenoxy]valeric acid] | 21 | 34 | 52 | 80 | – | – | – |
| C=C(CC)C(=O)c1ccc(OCCCCCC(=O)O)c(Cl)c1Cl [Example 5, 6-[2,3-dichloro-4-(2-methylenebutyryl)phenoxy]hexanoic acid] | 13 | 18 | 26 | 35 | – | – | – |
| C=C(CC)C(=O)c1ccc(OC2(C(=O)O)CCC2)c(Cl)c1Cl [Example 6, 1-[2,3-dichloro-4-(2-methylenebutyryl)phenoxy]cyclobutane-1-carboxylic acid] | 19 | 30 | 34 | 48 | – | – | – |
| C=C(CCC)C(=O)c1ccc(OC2(C(=O)O)CCC2)c(Cl)c1Cl [Example 7, 1-[2,3-dichloro-4-(2-methylenevaleryl)phenoxy]cyclobutane-1-carboxylic acid] | 14 | 30 | 26 | 39 | – | – | – |
| C=C(CC)C(=O)c1ccc(OC(C)(C)C(=O)O)c(Cl)c1Cl [Example 8, 2-[2,3-dichloro-4-(2-methylenebutyryl)phenoxy]-2-methylpropionic acid] | 11 | 21 | 41 | 53 | – | – | – |
| C=C(CC)C(=O)c1ccc(OCCCC(=O)O)c(Cl)c1Cl [sodium salt of 4-[2,3-dichloro-4-(2-methylenebutyryl)phenoxy]butyric acid] | – | – | – | – | higher solubility ratio than other antisickling agents, such as, dichlorobenzyloxyacetic and p-bromobenzyloxyacetic acids | tight covalent binding between the HbS and the therapeutic agent had occurred | cross the red blood cell membrane and react with hemoglobin |
